Laboratory results from patent publication US7723366B2 (Chugai Seiyaku Kabushiki Kaisha, priority 2001, dated 2010).

Experiments:
[1] = system: muscle (M) isoform of CPT-I; conditions: read-out: IC50 of malonyl-CoA inhibition of CPT-I; cited from earlier work
[2] = system: human breast cancer cells and xenografts; conditions: cited from earlier work
[3] = molecular target: T1, malonyl-CoA decarboxylase prepared from rat heart (Rattus norvegicus, UniProt Q920F5); experiment: In vitro MCD inhibitory assay (spectrophotometric, 96 well); assay type: biochemical; conditions: read-out: IC50 of the MCD inhibitors
T1 construct: from tissue; host or cells: rat heart
T1 sequence (Q920F5 39-492): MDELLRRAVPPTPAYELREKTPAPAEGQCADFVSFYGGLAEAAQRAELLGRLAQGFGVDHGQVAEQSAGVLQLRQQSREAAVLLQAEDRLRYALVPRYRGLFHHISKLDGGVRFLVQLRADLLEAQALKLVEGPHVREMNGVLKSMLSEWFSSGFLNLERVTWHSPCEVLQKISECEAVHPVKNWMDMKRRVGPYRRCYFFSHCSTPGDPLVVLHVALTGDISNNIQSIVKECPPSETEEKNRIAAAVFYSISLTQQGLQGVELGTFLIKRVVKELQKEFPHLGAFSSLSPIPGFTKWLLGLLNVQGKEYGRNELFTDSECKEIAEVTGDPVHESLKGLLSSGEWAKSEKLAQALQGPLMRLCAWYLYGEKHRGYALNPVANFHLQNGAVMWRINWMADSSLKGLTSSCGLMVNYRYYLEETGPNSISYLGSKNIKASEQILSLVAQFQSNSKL
Method: The following reagents are added into a 96 well titer plate: Tris-HCl buffer, 20 μL; DTE, 10 μL; I -malate, 20 μL; NAD, 10 μL; NADH, 25 μL; water, 80 μL; malic dehydrogenase, 5 μL. The contents are mixed and incubated for 2 min followed by the addition of 5 μL of citrate synthase. […] The content is incubated and absorbence at […] is measured.
Active compounds are characterized by the concentration of the compound that caused 50% inhibition of MCD activity (IC50).

[4] = system: isolated working hearts from male Sprague-Dawley rats; experiment: Glucose oxidation and fatty acid oxidation measurement in the perfused rat heart; conditions: compared with known metabolism modulators ranolazine or trimetazidine
Method: Isolated working hearts from male Sprague-Dawley rats are subjected to a 60-minute aerobic perfusion period with a modified Krebs-Henseleit solution containing 5 mmol/L glucose; 100 μU/mL insulin; 3% BAS; and 1.2 mmol/L palmitate. Working hearts are used in these studies to approximate the metabolic demand of the heart seen in vivo. (Kantor et al., Circulation Research 86:580-588(2000)). The test compound is added 5 minutes into the perfusion period.
Glucose oxidation rates are determined by the quantitative collection of ^14CO2 produced by hearts perfused with buffer containing […]. Rates of fatty acid oxidation are determined by the quantitative collection of ^14CO2 produced by hearts perfused with buffer containing [^14C]palmitate (McNeill, J. H. in “Measurement of cardiovascular function”, chapter 2, CRC press, New York (1997)).
Active compounds are characterized by an increase in glucose oxidation as compared to control experiment (DMSO). The compounds that caused statistically significant increases in glucose oxidation are considered to be active. The preferred compounds cause statistically significant increases in glucose oxidation at 20 μM. Statistical significance was calculated using the Student's t test for paired or unpaired samples, as appropriate. The results with P<0.05 are considered to be statistically significant.

Row | SMILES | IC50 [3] [nM] | other results
1 | CC(C)(COP(=O)(O)OP(=O)(O)OC[C@H]1O[C@@H](n2cnc3c(N)ncnc32)[C@H](O)[C@@H]1OP(=O)(O)O)[C@@H](O)C(=O)NCCC(=O)NCCSC(=O)CC(=O)O [Malonyl-CoA] |  | IC50 [1]: 30 nM
2 | CCCCCCCCCCCCCCOc1ccc(C(=O)O)o1 [TOFA, 5-(tetradecyloxy)-2-furoic acid] |  | malonyl-CoA level ([2]; breast carcinoma cells): 60 % of the control; antitumor activity [2]: does not show any antitumor activity
3 | CCCCCCNc1ccc2nc(S)sc2c1 [Table 2; entry 1, 6-(hexylamino)-1,3-benzothiazole-2-thiol] | 535 | 
4 | Sc1nc2ccc(NCc3ccccc3)cc2s1 [Table 2; entry 3, 6-[(phenylmethyl)amino]-1,3-benzothiazole-2-thiol] | 2620 | 
5 | CCCCCCN(C(=O)Nc1cc(OC)cc(OC)c1)c1ccc2nc(S)sc2c1 [Table 3; entry 1, N′-[3,5-bis(methyloxy)phenyl]-N-hexyl-N-(2-mercapto-1,3-benzothiazol-6-yl)urea] | 65 | effects in metabolism shift compared with ranolazine or trimetazidine [4]: more profound effects in metabolism shift
6 | CCN(C(=O)Nc1ccccc1)c1ccc2nc(S)sc2c1 [Table 3; entry 5] | 54 | effects in metabolism shift compared with ranolazine or trimetazidine [4]: more profound effects in metabolism shift
7 | S=C(Nc1ccccc1)N(Cc1ccccc1)c1ccc2nc(S)sc2c1 [Table 3; entry 8] | 240 | 
8 | O=C(COc1ccccc1)N(Cc1ccccc1)c1ccc2nc(S)sc2c1 [Table 4; entry 1, N-(2-mercapto-1,3-benzothiazol-6-yl)-N-(phenylmethyl)-2-(phenyloxy)acetamide] | 1020 | 
9 | CCCN(C(=O)N(CC(C)C)CC(C)C)c1ccc2nc(S)sc2c1 [Table 5; entry 5] | 263 | 
10 | O=S(=O)(c1ccc2sc(S)nc2c1)N1CCCCC1 [Table 7; entry 2] | 466 | 
11 | CCOC(=O)c1csc(S)n1 [Table 8; entry 1, Ethyl 2-Mercapto-1,3-thiazole-4-carboxylate] |  | melting point: 120 to 121 °C
